Measurements published in paper PMC13099078 (2023).

How the values were obtained:
[1] = test system: vancomycin-binding aptamer (45-base; EAB sensor) (DNA, aptamer) CGAGGGTACCGCAATAGTACTTATTGTTCGCCTATTGTGGGTCGG; assay: alternating current voltammetry; conditions: 2 mM Mg2+, PBS; 1x PBS, 37°C; apparent; Langmuir fit; 50 and 5 Hz
[2] = test system: vancomycin-binding aptamer (45-base; EAB sensor) (DNA, aptamer) CGAGGGTACCGCAATAGTACTTATTGTTCGCCTATTGTGGGTCGG; assay: differential pulse voltammetry; conditions: 2 mM Mg2+, PBS; 1x PBS, 37°C; apparent; Langmuir fit

Kd [1]: 46 ± 4 µM
Kd [2]: 76 ± 6 µM
SMILES: CN[C@H](CC(C)C)C(=O)N[C@H]1C(=O)N[C@@H](CC(N)=O)C(=O)N[C@H]2C(=O)N[C@H]3C(=O)N[C@H](C(=O)N[C@H](C(=O)O)c4cc(O)cc(O)c4-c4cc3ccc4O)[C@H](O)c3ccc(c(Cl)c3)Oc3cc2cc(c3O[C@@H]2O[C@H](CO)[C@@H](O)[C@H](O)[C@H]2O[C@H]2C[C@](C)(N)[C@H](O)[C@H](C)O2)Oc2ccc(cc2Cl)[C@H]1O
